Experimental data taken from patent US20230069804A1, “METHODS AND COMPOSITIONS FOR MODULATING SPLICING” (SkyHawk Therapeutics, Inc., priority 2019, published 2023).
Like-named read-outs stand apart in the source and are kept apart here.

How the values were obtained:
MDR1 = experiment: MDCK-MDR1 permeability assay (BBB penetration potential); type: in vitro ADME; settings: dog; for Papp A→B at 120 min, 5 μM / Papp B→A at 120 min, 5 μM: MDCK-MDR1, pH 7.4
Description: (§1) Each determination is performed in duplicate. […] Analytical conditions are outlined below.
(§2) Papp=(dCr/dt)×Vr/(A×CA) (1)

[1] = tested on: MDR1-MDCK cell monolayers; experiment: as above; type: in vitro ADME; settings: 5 μM, 120 minutes; for MDCK-MDR1: % Recov A-B / MDCK-MDR1: % Recov B-A: pH 7.4; for MDCK MDRP1 Efflux Ratio: Papp (B-to-A)/Papp (A-to-B), separated enantiomers, told apart by chiral retention time
Description: as §1, §2

[2] = MDCK-MDR1, pH 7.4, Papp (B-to-A)/Papp (A-to-B), read-out: MDCK-MDR1: Efflux
[3] = MDCK-MDR1, pH 7.4, Papp (B-to-A)/Papp (A-to-B), 5 μM, 120 minutes, separated enantiomers, told apart by chiral retention time, read-out: MDCK MDRP1 Efflux Ratio

Row | Structure (SMILES) | efflux ratio at 120 min, 5 μM (MDR1; [2]) | Papp A→B at 120 min, 5 μM (MDR1; 5 μM, 120 minutes) [×10⁻⁶ cm/s] | Papp B→A at 120 min, 5 μM (MDR1; 5 μM, 120 minutes) [×10⁻⁶ cm/s] | MDCK-MDR1: % Recov A-B [1] [%] | MDCK-MDR1: % Recov B-A [1] [%] | efflux ratio at 120 min, 5 μM (MDR1; [3]) | MDCK MDRP1 Efflux Ratio [1]
1 | COc1cc(-c2ccc(-c3nnc(N(C)[C@H]4C[C@@H]5CC[C@@H](N5)[C@H]4F)s3)c(O)c2)ncn1 (single isomer, unassigned) [Compound E-5B] | 2 | 6.59 | 9.86 | 37 | 58 | – | –
2 | CN(c1nnc(-c2ccc(-c3cnn(C)c3)cc2O)s1)[C@@H]1C[C@H]2CC[C@@H]([C@@H]1F)N2C (single isomer, unassigned) [Compound E-25B] | 3 | 7.16 | 22.7 | 67 | 83 | – | –
3 | CN(c1nnc(-c2ccc(-c3cnn(CF)c3)cc2O)s1)[C@H]1C[C@@H]2CC[C@@H](N2)[C@H]1F (single isomer, unassigned) [Compound E-10A] | 6 | 8.6 | 50.8 | 72 | 80 | – | –
4 | CN(c1nnc(-c2ccc(-c3cnn(C)c3)cc2O)s1)[C@H]1C[C@@H]2CC[C@@H](N2)[C@H]1F (racemic) [3A/3B, 2-(5-(((1R,2R,3S,5S)-2-fluoro-8-azabicyclo[3.2.1]octan-3-yl)(methyl)amino)-1,3,4-thiadiazol-2-yl)-5-(1-methyl-1H-pyrazol-4-yl)phenol] | – | – | – | – | – | 4.3 | 5.3
5 | CN(c1nnc(-c2ccc(-c3cn[nH]c3)cc2O)s1)[C@H]1C[C@@H]2CC[C@H]([C@H]1F)N2C (racemic) [23A/23B, 2-(5-{[(1S,2S,3R,5R)-2-fluoro-8-methyl-8-azabicyclo[3.2.1]octan-3-yl](methyl)amino}-1,3,4-thiadiazol-2-yl)-5-(1H-pyrazol-4-yl)phenol and 2-(5-{[(1R,2R,3S,5S)-2-fluoro-8-methyl-8-azabicyclo[3.2.1]octan-3-yl](methyl)amino}-1,3,4-thiadiazol-2-yl)-5-(1H-pyrazol-4-yl)phenol] | – | – | – | – | – | 7 | 9
6 | CN(c1nnc(-c2ccc(-c3ccn(CF)c(=O)c3)cc2O)s1)[C@@H]1C[C@H]2CC[C@H](N2)[C@@H]1F (racemic) [15A/15B, 4-[4-(5-{[(1S,2S,3R)-2-fluoro-8-azabicyclo[3.2.1]octan-3-yl](methyl)amino}-1,3,4-thiadiazol-2-yl)-3-hydroxyphenyl]-1-(fluoromethyl)-1,2-dihydropyridin-2-one and 4-[4-(5-{[(2R,3S,5S)-2-fluoro-8-azabicyclo[3.2.1]octan-3-yl](methyl)amino}-1,3,4-thiadiazol-2-yl)-3-hydroxyphenyl]-1-(fluoromethyl)-1,2-dihydropyridin-2-one] | – | – | – | – | – | 40 | 66
7 | COc1cc(-c2ccc(-c3nnc(N(C)[C@H]4C[C@@H]5CC[C@@H](N5)[C@H]4F)s3)c(O)c2)ccn1 (single isomer, unassigned) [Compound E-11B] | 2 | 3.71 | 6.07 | 17 | 60 | – | –
8 | CN(c1nnc(-c2ccc(-c3cc(=O)n(C)cn3)cc2O)s1)[C@H]1C[C@@H]2CC[C@@H](N2)[C@H]1F (single isomer, unassigned) [Compound E-8B] | 31 | 0.66 | 20.6 | 67 | 42 | – | –
9 | CN(c1nnc(-c2ccc(-c3ccn(C)c(=O)c3)cc2O)s1)[C@H]1C[C@@H]2CC[C@@H](N2)[C@H]1F (single isomer, unassigned) [Compound E-4B] | 40 | 1.81 | 71.4 | 115 | 125 | – | –
10 | CN(c1nnc(-c2cc(F)c(-c3cn[nH]c3)cc2O)s1)[C@H]1C[C@@H]2CC[C@H]([C@H]1F)N2C (single isomer, unassigned) [Compound E-24A] | 6 | 5.07 | 30.8 | 57 | 74 | – | –
11 | CN(c1nnc(-c2ccc(-c3cn[nH]c3)cc2O)s1)[C@@H]1C[C@H]2CC[C@@H]([C@@H]1F)N2C (single isomer, unassigned) [Compound E-23B] | 7 | 5.69 | 39 | 83 | 89 | – | –
12 | CN(c1nnc(-c2ccc(-c3ccn(CF)c(=O)c3)cc2O)s1)[C@@H]1C[C@H]2CC[C@H](N2)[C@@H]1F (single isomer, unassigned) [Compound E-15A] | 40 | 1.39 | 55.6 | 82 | 96 | – | –
13 | COc1cc(-c2ccc(-c3nnc(N(C)[C@@H]4C[C@H]5CC[C@H](N5)[C@@H]4F)s3)c(O)c2)ccn1 (single isomer, unassigned) [Compound E-11A] | 2 | 4.19 | 9.76 | 20 | 56 | – | –
14 | CN(c1nnc(-c2ccc(-c3cn[nH]c3)cc2O)s1)[C@H]1C[C@@H]2CC[C@@H](N2)[C@H]1F (single isomer, unassigned) [Compound E-7A] | 12 | 5.22 | 60.6 | 99 | 102 | – | –
15 | CN(c1nnc(-c2ccc(-c3cnn(C)c3)cc2O)s1)[C@H]1C[C@@H]2CC[C@H]([C@H]1F)N2C (single isomer, unassigned) [Compound E-25A] | 4 | 8.7 | 32 | 70 | 82 | – | –
16 | CN(c1nnc(-c2ccc(-c3ccn(C)c(=O)c3)cc2O)s1)[C@@H]1C[C@H]2CC[C@H](N2)[C@@H]1F (single isomer, unassigned) [Compound E-4A] | 54 | 1.03 | 55.9 | 93 | 101 | – | –
17 | CN(c1nnc(-c2ccc(-c3cnn(C)c3)cc2O)s1)[C@@H]1C[C@H]2CCC[C@H](N2)[C@@H]1F (racemic) [1A/1B, 2-(5-(((1S,2S,3R,5R)-2-fluoro-9-azabicyclo[3.3.1]nonan-3-yl)(methyl)amino)-1,3,4-thiadiazol-2-yl)-5-(1-methyl-1H-pyrazol-4-yl)phenol and 2-(5-(((1R,2R,3S,5S)-2-fluoro-9-azabicyclo[3.3.1]nonan-3-yl)(methyl)amino)-1,3,4-thiadiazol-2-yl)-5-(1-methyl-1H-pyrazol-4-yl)phenol] | – | – | – | – | – | 5.5 | 6
18 | CN(c1nnc(-c2cc(F)c(-c3cnn(C)c3)cc2O)s1)[C@H]1C[C@@H]2CC[C@@H](N2)[C@H]1F (racemic) [9A/9B, 4-fluoro-2-(5-{[(1S,2S,3R,5R)-2-fluoro-8-azabicyclo[3.2.1]octan-3-yl](methyl)amino}-1,3,4-thiadiazol-2-yl)-5-(1-methyl-1H-pyrazol-4-yl)phenol and 4-fluoro-2-(5-{[(1R,2R,3S,5S)-2-fluoro-8-azabicyclo[3.2.1]octan-3-yl](methyl)amino}-1,3,4-thiadiazol-2-yl)-5-(1-methyl-1H-pyrazol-4-yl)phenol] | – | – | – | – | – | 5 | 6
19 | CN(c1nnc(-c2cc(F)c(-c3cn[nH]c3)cc2O)s1)[C@@H]1C[C@H]2CC[C@@H]([C@@H]1F)N2C (single isomer, unassigned) [Compound E-24B] | 7 | 4.16 | 29.4 | 59 | 82 | – | –
20 | CN(c1nnc(-c2ccc(-c3cnn(C)c3)cc2O)s1)[C@H]1C[C@@H]2CC[C@H]([C@H]1F)N2C (racemic) [21A/21B, 2-(5-{[(1S,2S,3R,5R)-2-fluoro-8-methyl-8-azabicyclo[3.2.1]octan-3-yl](methyl)amino}-1,3,4-thiadiazol-2-yl)-5-(1-methyl-1H-pyrazol-4-yl)phenol and 2-(5-{[(1R,2R,3S,5S)-2-fluoro-8-methyl-8-azabicyclo[3.2.1]octan-3-yl](methyl)amino}-1,3,4-thiadiazol-2-yl)-5-(1-methyl-1H-pyrazol-4-yl)phenol] | – | – | – | – | – | 3 | 4
21 | CN(c1nnc(-c2ccc(-c3cc(=O)n(C)cn3)cc2O)s1)[C@@H]1C[C@H]2CC[C@H](N2)[C@@H]1F (racemic) [8A/8B, 6-[4-(5-{[(1S,2S,3R)-2-fluoro-8-azabicyclo[3.2.1]octan-3-yl](methyl)amino}-1,3,4-thiadiazol-2-yl)-3-hydroxyphenyl]-3-methyl-3,4-dihydropyrimidin-4-one and 6-[4-(5-{[(2R,3S,5S)-2-fluoro-8-azabicyclo[3.2.1]octan-3-yl](methyl)amino}-1,3,4-thiadiazol-2-yl)-3-hydroxyphenyl]-3-methyl-3,4-dihydropyrimidin-4-one] | – | – | – | – | – | 21 | 31
22 | CN(c1nnc(-c2ccc(-c3cc(=O)n(C)cn3)cc2O)s1)[C@@H]1C[C@H]2CC[C@H](N2)[C@@H]1F (single isomer, unassigned) [Compound E-8A] | 21 | 1.31 | 27.8 | 116 | 114 | – | –
